Experimental data reported in ChEMBL document CHEMBL2440005, “Discovery and structure-activity relationships of 6-(benzoylamino)benzoxaboroles as orally active anti-inflammatory agents” (Bioorg Med Chem Lett, 2013).
The source made the active and inactive calls. No cut-off for these calls is given here.

Legend:
[1] = molecular target: Prostaglandin G/H synthase 2 (Homo sapiens) (UniProt P35354); experiment: Inhibition of COX2 (unknown origin) up to 25 uM
[2] = AUC (0 to 24 hrs) in mouse at 4 mg/kg, po; format: ADME, organism-based; parameters: time < 24 hr, dose 4 mg/kg, route oral; conditions: plasma
[3] = molecular target: Rho-associated protein kinase 1 (Homo sapiens) (UniProt Q13464); experiment: Inhibition of ROCK1 (unknown origin) at 30 uM
[4] = tested on: Mus musculus; experiment: Antiinflammatory activity in collagen-induced arthritis mouse model at 30 mg/kg, po qd administered every other day for 20 days relative to vehicle-treated control; format: functional; conditions: 480 h
[5] = Oral bioavailability in mouse at 4 mg/kg; format: ADME, organism-based; conditions: in vivo
[6] = molecular target: Inhibitor of nuclear factor kappa-B kinase subunit alpha (Homo sapiens) (UniProt O15111); experiment: Inhibition of IKKalpha (unknown origin) at 30 uM
Sequence of Inhibitor of nuclear factor kappa-B kinase subunit alpha (Homo sapiens) (O15111 whole entry): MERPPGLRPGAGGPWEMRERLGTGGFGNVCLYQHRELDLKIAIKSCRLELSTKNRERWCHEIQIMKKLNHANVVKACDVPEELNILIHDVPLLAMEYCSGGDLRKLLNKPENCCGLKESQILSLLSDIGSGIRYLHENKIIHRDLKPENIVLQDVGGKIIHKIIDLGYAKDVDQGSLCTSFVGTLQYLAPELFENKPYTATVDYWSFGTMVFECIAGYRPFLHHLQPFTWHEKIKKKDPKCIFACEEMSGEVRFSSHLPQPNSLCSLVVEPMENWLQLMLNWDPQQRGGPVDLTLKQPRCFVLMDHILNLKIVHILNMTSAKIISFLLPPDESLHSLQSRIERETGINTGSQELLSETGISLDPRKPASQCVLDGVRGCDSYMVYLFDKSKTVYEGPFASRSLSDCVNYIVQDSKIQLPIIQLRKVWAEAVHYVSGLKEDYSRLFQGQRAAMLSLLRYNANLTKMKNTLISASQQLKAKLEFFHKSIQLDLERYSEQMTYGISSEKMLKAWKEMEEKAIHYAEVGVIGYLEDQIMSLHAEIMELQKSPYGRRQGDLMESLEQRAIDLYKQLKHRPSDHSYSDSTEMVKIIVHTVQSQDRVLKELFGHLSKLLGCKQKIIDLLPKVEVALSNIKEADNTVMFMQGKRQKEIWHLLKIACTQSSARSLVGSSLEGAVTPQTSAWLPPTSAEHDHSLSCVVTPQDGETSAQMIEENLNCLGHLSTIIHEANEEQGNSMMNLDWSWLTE

[7] = tested on: Mus musculus; experiment: Antiinflammatory activity in mouse assessed as inhibition of LPS-induced TNF-alpha production at 30 mg/kg, po administered 1 hr prior to LPS challenge measured after 1 hr; format: functional
[8] = Cmax in mouse at 4 mg/kg, po; format: ADME, organism-based; parameters: dose 4 mg/kg, route oral; conditions: in vivo
[9] = Terminal half life in mouse at 4 mg/kg, po; format: ADME, organism-based; parameters: dose 4 mg/kg, route oral; conditions: in vivo, read-out: beta t1/2 (converted)
[10] = molecular target: MAP kinase-activated protein kinase 3 (Homo sapiens) (UniProt Q16644); experiment: Inhibition of MAPKAPK3 (unknown origin) at 30 uM
Sequence of MAP kinase-activated protein kinase 3 (Homo sapiens) (Q16644 whole entry, looked up): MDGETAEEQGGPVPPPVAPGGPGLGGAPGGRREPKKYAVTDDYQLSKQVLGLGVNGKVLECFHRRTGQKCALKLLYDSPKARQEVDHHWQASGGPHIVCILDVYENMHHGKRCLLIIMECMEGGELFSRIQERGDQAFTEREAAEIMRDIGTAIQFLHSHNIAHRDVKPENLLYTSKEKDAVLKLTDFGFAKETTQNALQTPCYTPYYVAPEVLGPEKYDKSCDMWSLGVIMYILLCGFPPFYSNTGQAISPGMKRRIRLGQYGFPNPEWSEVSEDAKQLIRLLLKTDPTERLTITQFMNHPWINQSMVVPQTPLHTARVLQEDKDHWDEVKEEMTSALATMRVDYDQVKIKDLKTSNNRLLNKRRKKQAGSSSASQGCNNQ

[11] = tested on: PBMC; experiment: Cytotoxicity against LPS-stimulated human PBMC assessed as growth inhibition by MTT assay; format: cell-based
[12] = molecular target: Mitogen-activated protein kinase 3 (Homo sapiens) (UniProt P27361); experiment: Inhibition of ERK1 (unknown origin) at 30 uM
[13] = molecular target: Mitogen-activated protein kinase 1 (Homo sapiens) (UniProt P28482); experiment: Inhibition of ERK2 (unknown origin) at 30 uM
[14] = molecular target: Phosphatidylinositol 4,5-bisphosphate 3-kinase catalytic subunit gamma isoform (Homo sapiens) (UniProt P48736); experiment: Inhibition of PI3Kgamma (unknown origin) at 30 uM
[15] = Volume of distribution at steady state in mouse at 2 mg/kg, iv; format: ADME, organism-based; parameters: dose 2 mg/kg, route intravenous; conditions: in vivo, read-out: Vdss
[16] = tested on: Mus musculus; experiment: Antiinflammatory activity in po dosed mouse assessed as inhibition of LPS-induced IL-6 production administered 1 hr prior to LPS challenge measured after 1 hr; format: functional, organism-based
[17] = molecular target: Dual specificity mitogen-activated protein kinase kinase 6 (Homo sapiens) (UniProt P52564); experiment: Inhibition of MKK6 (unknown origin) at 30 uM
[18] = molecular target: Rho-associated protein kinase 2 (Homo sapiens) (UniProt O75116); experiment: Inhibition of ROCK2 (unknown origin) at 30 uM
[19] = tested on: Mus musculus; experiment: Antiinflammatory activity in mouse assessed as inhibition of LPS-induced TNF-alpha production at 100 mg/kg, po administered 1 hr prior to LPS challenge measured after 1 hr; format: functional, organism-based; parameters: dose 100 mg/kg
[20] = molecular target: Tyrosine-protein kinase JAK3 (Homo sapiens) (UniProt P52333); experiment: Inhibition of JAK3 (unknown origin) at 30 uM
[21] = tested on: PBMC; experiment: Antiinflammatory activity in human PBMC assessed as inhibition of LPS-induced IL-1beta release incubated for 15 mins prior to LPS-challenge measured after 24 hrs by HTRF assay; format: functional, cell-based
[22] = molecular target: Mitogen-activated protein kinase 10 (Homo sapiens) (UniProt P53779); experiment: Inhibition of JNK3 (unknown origin) at 30 uM
[23] = molecular target: RAC-beta serine/threonine-protein kinase (Homo sapiens) (UniProt P31751); experiment: Inhibition of AKT2 (unknown origin) at 30 uM
Sequence of RAC-beta serine/threonine-protein kinase (Homo sapiens) (P31751 whole entry): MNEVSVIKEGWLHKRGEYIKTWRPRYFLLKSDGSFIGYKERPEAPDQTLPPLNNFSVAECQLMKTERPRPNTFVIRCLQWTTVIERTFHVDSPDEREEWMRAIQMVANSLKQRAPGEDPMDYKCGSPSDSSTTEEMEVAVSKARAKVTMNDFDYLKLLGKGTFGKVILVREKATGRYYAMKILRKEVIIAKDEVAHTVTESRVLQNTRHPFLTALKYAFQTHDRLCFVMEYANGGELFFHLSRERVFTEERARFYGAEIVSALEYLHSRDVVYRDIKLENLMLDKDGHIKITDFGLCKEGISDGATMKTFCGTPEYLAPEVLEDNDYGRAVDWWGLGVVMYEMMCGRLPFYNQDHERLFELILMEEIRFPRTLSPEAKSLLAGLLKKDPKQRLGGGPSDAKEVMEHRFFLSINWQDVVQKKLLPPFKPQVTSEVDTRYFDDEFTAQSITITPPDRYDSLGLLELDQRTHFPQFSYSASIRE

[24] = molecular target: Mitogen-activated protein kinase 14 (Homo sapiens) (UniProt Q16539); experiment: Inhibition of p38alpha (unknown origin) at 30 uM
Sequence of Mitogen-activated protein kinase 14 (Homo sapiens) (Q16539 whole entry, canonical isoform): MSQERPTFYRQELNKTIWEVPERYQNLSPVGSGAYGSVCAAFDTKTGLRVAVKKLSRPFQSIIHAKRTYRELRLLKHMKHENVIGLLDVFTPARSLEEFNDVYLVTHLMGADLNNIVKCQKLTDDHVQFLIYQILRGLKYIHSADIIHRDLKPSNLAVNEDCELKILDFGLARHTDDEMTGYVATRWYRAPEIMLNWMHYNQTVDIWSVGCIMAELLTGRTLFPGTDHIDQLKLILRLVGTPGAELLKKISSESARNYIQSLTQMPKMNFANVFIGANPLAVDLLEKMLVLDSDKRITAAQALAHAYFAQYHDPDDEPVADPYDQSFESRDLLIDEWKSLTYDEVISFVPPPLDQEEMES

[25] = molecular target: Phosphatidylinositol 4,5-bisphosphate 3-kinase catalytic subunit delta isoform (Homo sapiens) (UniProt O00329); experiment: Inhibition of PI3Kdelta (unknown origin) at 30 uM
[26] = molecular target: Dual specificity mitogen-activated protein kinase kinase 4 (Homo sapiens) (UniProt P45985); experiment: Inhibition of MKK4 (unknown origin) at 30 uM
[27] = molecular target: RAC-gamma serine/threonine-protein kinase (Homo sapiens) (UniProt Q9Y243); experiment: Inhibition of AKT3 (unknown origin) at 30 uM
Sequence of RAC-gamma serine/threonine-protein kinase (Homo sapiens) (Q9Y243 whole entry): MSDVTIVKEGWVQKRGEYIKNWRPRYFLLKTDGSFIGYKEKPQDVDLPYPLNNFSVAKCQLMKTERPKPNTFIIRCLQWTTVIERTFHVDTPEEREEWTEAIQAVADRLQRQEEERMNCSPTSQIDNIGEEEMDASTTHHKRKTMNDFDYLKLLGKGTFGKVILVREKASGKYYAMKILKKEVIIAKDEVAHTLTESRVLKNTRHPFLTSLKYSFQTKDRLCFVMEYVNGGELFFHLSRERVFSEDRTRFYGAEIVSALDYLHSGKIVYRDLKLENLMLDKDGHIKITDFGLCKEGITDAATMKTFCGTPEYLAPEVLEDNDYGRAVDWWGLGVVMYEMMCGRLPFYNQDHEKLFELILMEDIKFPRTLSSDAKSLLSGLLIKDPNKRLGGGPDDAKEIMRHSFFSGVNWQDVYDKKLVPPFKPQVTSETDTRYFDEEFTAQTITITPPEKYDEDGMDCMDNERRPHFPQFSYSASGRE

[28] = molecular target: Mitogen-activated protein kinase 9 (Homo sapiens) (UniProt P45984); experiment: Inhibition of JNK2 (unknown origin) at 30 uM
Sequence of Mitogen-activated protein kinase 9 (Homo sapiens) (P45984 whole entry, looked up): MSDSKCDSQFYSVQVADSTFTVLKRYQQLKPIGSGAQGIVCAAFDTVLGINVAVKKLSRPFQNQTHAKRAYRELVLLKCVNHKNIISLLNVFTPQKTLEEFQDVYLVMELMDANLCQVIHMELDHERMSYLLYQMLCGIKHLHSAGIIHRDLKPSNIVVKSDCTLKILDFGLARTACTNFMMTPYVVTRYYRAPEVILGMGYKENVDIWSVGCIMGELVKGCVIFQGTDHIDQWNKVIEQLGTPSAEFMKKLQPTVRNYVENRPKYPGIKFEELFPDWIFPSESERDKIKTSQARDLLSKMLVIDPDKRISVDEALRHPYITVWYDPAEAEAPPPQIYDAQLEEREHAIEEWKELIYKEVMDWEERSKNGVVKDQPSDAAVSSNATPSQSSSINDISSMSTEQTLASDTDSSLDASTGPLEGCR

[29] = Tmax in mouse at 4 mg/kg, po; format: ADME, organism-based; parameters: dose 4 mg/kg, route oral; conditions: in vivo
[30] = tested on: PBMC; experiment: Antiinflammatory activity in human PBMC assessed as inhibition of LPS-induced IL-6 release incubated for 15 mins prior to LPS-challenge measured after 24 hrs by HTRF assay; format: functional, cell-based
[31] = Terminal half life in mouse at 2 mg/kg, iv; format: ADME, organism-based; parameters: dose 2 mg/kg, route intravenous; conditions: in vivo, read-out: beta t1/2 (converted)
[32] = molecular target: Interleukin-1 receptor-associated kinase 4 (Homo sapiens) (UniProt Q9NWZ3); experiment: Inhibition of IRAK4 (unknown origin) at 30 uM
Sequence of Interleukin-1 receptor-associated kinase 4 (Homo sapiens) (Q9NWZ3 whole entry): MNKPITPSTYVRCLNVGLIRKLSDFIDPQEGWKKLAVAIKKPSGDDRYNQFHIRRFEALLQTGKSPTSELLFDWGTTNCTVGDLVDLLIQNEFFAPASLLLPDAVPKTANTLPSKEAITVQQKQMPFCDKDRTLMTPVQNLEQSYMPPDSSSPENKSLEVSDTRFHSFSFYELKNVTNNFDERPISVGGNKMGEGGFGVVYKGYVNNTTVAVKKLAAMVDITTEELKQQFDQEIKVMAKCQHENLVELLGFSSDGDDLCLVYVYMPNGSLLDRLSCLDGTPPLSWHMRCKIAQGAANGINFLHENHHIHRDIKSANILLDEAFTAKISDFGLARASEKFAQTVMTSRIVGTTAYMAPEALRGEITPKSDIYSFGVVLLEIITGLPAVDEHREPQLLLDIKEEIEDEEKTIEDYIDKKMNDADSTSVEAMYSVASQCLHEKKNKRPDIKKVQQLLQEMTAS

[33] = molecular target: Mitogen-activated protein kinase 8 (Homo sapiens) (UniProt P45983); experiment: Inhibition of JNK1 (unknown origin) at 30 uM
[34] = molecular target: Mitogen-activated protein kinase 11 (Homo sapiens) (UniProt Q15759); experiment: Inhibition of p38beta (unknown origin) at 30 uM
Sequence of Mitogen-activated protein kinase 11 (Homo sapiens) (Q15759 whole entry): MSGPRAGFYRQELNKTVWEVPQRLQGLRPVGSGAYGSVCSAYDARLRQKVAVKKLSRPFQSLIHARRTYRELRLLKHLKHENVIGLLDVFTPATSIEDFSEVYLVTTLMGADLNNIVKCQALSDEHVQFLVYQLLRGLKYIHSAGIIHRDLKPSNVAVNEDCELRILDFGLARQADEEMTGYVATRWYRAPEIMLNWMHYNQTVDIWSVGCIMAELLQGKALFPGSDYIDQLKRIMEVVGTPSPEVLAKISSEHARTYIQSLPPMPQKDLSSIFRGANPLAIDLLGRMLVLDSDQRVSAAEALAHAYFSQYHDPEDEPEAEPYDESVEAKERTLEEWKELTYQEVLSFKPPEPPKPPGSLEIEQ

[35] = tested on: Mus musculus; experiment: Toxicity in mouse assessed as change in body weight at 30 mg/kg, po qd administered every other day for 20 days relative to untreated control; format: organism-based; parameters: dose 30 mg/kg, route oral; conditions: in vivo, 480 h
[36] = AUC (0 to 24 hrs) in mouse at 2 mg/kg, iv; format: ADME, organism-based; parameters: time < 24 hr, dose 2 mg/kg, route intravenous; conditions: plasma
[37] = molecular target: Protein kinase C beta type (Homo sapiens) (UniProt P05771); experiment: Inhibition of PKCbeta (unknown origin) at 30 uM
Sequence of Protein kinase C beta type (Homo sapiens) (P05771 2-671 limits assumed): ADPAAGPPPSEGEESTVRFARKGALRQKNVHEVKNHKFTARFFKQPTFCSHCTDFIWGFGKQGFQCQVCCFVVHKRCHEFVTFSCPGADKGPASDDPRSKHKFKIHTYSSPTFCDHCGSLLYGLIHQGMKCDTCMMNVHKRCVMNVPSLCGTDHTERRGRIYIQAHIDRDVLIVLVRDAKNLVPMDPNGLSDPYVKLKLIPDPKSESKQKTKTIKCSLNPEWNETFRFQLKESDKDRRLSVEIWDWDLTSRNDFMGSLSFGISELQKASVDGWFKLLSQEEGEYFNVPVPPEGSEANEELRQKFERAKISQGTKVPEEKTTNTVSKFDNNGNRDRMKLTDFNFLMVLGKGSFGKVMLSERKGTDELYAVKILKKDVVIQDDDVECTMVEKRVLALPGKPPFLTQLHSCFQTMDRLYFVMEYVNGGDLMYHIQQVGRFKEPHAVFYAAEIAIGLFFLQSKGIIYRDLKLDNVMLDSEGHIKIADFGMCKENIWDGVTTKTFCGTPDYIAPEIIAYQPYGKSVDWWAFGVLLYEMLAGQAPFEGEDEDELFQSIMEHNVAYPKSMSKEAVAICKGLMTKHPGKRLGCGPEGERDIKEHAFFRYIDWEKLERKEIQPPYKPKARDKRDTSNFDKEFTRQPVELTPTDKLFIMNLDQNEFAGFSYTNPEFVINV

[38] = molecular target: Inhibitor of nuclear factor kappa-B kinase subunit beta (Homo sapiens) (UniProt O14920); experiment: Inhibition of IKKbeta (unknown origin) at 30 uM
[39] = molecular target: Mitogen-activated protein kinase 12 (Homo sapiens) (UniProt P53778); experiment: Inhibition of p38gamma (unknown origin) at 30 uM
[40] = molecular target: Tyrosine-protein kinase JAK2 (Homo sapiens) (UniProt O60674); experiment: Inhibition of JAK2 (unknown origin) at 30 uM
[41] = molecular target: MAP kinase-activated protein kinase 2 (Homo sapiens) (UniProt P49137); experiment: Inhibition of MAPKAPK2 (unknown origin) at 30 uM
[42] = Clearance in mouse at 2 mg/kg, iv; format: ADME, organism-based; parameters: dose 2 mg/kg, route intravenous; conditions: in vivo
[43] = molecular target: Mitogen-activated protein kinase kinase kinase 7 (Homo sapiens) (UniProt O43318); experiment: Inhibition of TAK1 (unknown origin) at 30 uM
[44] = tested on: Mus musculus; experiment: Antiinflammatory activity in mouse assessed as inhibition of LPS-induced IL-6 production at 10 mg/kg, po administered 1 hr prior to LPS challenge measured after 1 hr; format: functional
[45] = molecular target: Interleukin-1 receptor-associated kinase 1 (Homo sapiens) (UniProt P51617); experiment: Inhibition of IRAK1 (unknown origin) at 30 uM

Sequence of Prostaglandin G/H synthase 2 (Homo sapiens) (P35354 whole entry): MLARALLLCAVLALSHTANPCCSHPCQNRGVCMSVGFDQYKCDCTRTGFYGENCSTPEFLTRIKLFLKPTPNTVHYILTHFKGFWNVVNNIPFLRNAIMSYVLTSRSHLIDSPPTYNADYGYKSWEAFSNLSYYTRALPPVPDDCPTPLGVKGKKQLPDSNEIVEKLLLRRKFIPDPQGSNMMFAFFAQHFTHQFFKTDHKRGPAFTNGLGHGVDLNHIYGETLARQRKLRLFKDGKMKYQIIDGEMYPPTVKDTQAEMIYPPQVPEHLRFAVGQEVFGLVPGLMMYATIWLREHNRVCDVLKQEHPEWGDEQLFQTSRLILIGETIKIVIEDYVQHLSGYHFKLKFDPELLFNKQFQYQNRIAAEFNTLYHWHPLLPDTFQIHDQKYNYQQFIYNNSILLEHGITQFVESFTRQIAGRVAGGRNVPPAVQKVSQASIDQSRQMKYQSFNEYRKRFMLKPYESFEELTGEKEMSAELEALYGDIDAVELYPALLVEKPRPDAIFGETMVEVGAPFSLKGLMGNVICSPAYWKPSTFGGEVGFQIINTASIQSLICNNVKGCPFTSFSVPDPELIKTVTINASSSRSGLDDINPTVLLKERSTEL

- inhibition [1]: inactive
- AUC(0-t) at 24 h [2]: 70.1 µg·h/mL
- inhibition [3]: inactive
- bioavailability [5]: 71%
- inhibition [6]: inactive
- Cmax [8]: 5.65 µg/mL
- half-life [9]: 13.3 h
- inhibition [10]: inactive
- inhibition [12]: inactive
- inhibition [13]: inactive
- inhibition [14]: inactive
- Vd [15]: 0.41 L/kg
- inhibition [17]: inactive
- inhibition [18]: inactive
- inhibition [20]: inactive
- inhibition [22]: inactive
- inhibition [23]: inactive
- inhibition [24]: inactive
- inhibition [25]: inactive
- inhibition [26]: inactive
- inhibition [27]: inactive
- inhibition [28]: inactive
- Tmax [29]: 4 h
- half-life [31]: 7.85 h
- inhibition [32]: inactive
- inhibition [33]: inactive
- inhibition [34]: inactive
- AUC(0-t) at 24 h [36]: 43.4 µg·h/mL
- inhibition [37]: inactive
- inhibition [38]: inactive
- inhibition [39]: inactive
- inhibition [40]: inactive
- inhibition [41]: inactive
- clearance [42]: 0.041 L/h/kg
- inhibition [43]: inactive
- inhibition [45]: inactive
Compound: O=C(Nc1ccc2c(c1)B(O)OC2)c1c(C(F)(F)F)ccc(Cl)c1F
- inhibition in vivo at 30 mg/kg [4]: 68%
- inhibition in vivo at 30 mg/kg [7]: 80%
- IC50 [11]: > 100 µM
- inhibition [16]: Dose-dependent effect
- inhibition [19]: Active
- IC50 [21]: 0.19 µM
- IC50 [30]: 0.32 µM
- Activity [35]: Non-toxic
- inhibition in vivo at 10 mg/kg [44]: 75%
